43 sequences from the OligoGym collection can be followed below.

Values joined by “and” are separate entries in the source; they are usually repeats but may differ in a detail not shown here. Equal values may be shown once. After the bases stand the sugars from the 5' end (letter, count) and the backbone: PS all phosphorothioate, else s phosphorothioate and o phosphodiester by linkage. Methylation of C is not given here. e = 2'-O-(2-methoxyethyl) (MOE); k = constrained ethyl (cEt); d = 2'-deoxy (DNA)

The target in data set [1] is DGAT2. The following applies: ASO.
Data set [2] deals with SOD1. The following applies: ASO.

Turning to “AAAACAGGGTACAACTCTCT (sugars e5 d10 e5, PS)”, the target mRNA inhibition in data set [1] (HepG2, 2.5 µM) is 73% and 59%; in data set [1] (HepG2, 10 µM) it was 91% and 87%.

Turning to “AAAACCAGTTACTCCACCTA (sugars e5 d10 e5, PS)”, the target mRNA inhibition in data set [1] (HepG2, 0.12 µM) was 0%. In the case of “AAAACTTAGGCATGCTTCCT (sugars e5 d10 e5, PS)”, the target mRNA inhibition worked out at 53% in data set [1] (HepG2, 2.5 µM) and 83% in data set [1] (HepG2, 10 µM). Take “AAAAGGAGTTTGTGTTTCCC (sugars e5 d10 e5, PS)”: the target mRNA inhibition in data set [1] (HepG2, 2.5 µM) was 84% and 86%; in data set [1] (HepG2, 10 µM), 92% and 95%.

With “AAACACCAGCCAAGTGAAGT (sugars e5 d10 e5, PS)”, the target mRNA inhibition in data set [1] (HepG2, 0.12 µM) was 9%.

For the sequence “AAAGCAAATAGTCTATGGTG (sugars e5 d10 e5, PS)”, the target mRNA inhibition in data set [1] (HepG2, 0.12 µM) was 46%.

Regarding “AAAGTCTGACATGGTGC (sugars e3 d10 e4, PS)”, the target mRNA inhibition in data set [1] (HepG2, 2.5 µM) is 48%; in data set [1] (HepG2, 10 µM) it was 81%. Turning to “AAATCACAGAATTATCAGCA (sugars e5 d10 e5, PS)”, the target mRNA inhibition in data set [1] (HepG2, 2.5 µM) came out at 57%; in data set [1] (HepG2, 10 µM), 92%. In the case of “AACCCACAGACACCCATGAC (sugars e5 d10 e5, PS)”, in data set [1] (HepG2, 0.12 µM), the target mRNA inhibition worked out at 4%. For the sequence “AACTTAGGCATGCTTCCTCC (sugars e5 d10 e5, PS)”, the target mRNA inhibition in data set [1] (HepG2, 2.5 µM) amounted to 44%; in data set [1] (HepG2, 10 µM), 89%. Consider “AACTTCTTCTGGACCCATCG (sugars e5 d10 e5, PS)”, for which, in data set [1] (HepG2, 0.12 µM), the target mRNA inhibition came out at 28%. On the same count and under the same terms, next, “AAGATTCATAACTATATCTA (sugars e5 d10 e5, PS)”: 6%.

In the case of “AAGCCTCGGTGTCCTCT (sugars e3 d10 e4, PS)”, the target mRNA inhibition in data set [1] (HepG2, 2.5 µM) was 56% and 70%; in data set [1] (HepG2, 10 µM), 87% and 90%. Take “AAGGACAGAGGTTCAACATC (sugars e5 d10 e5, PS)”: the target mRNA inhibition stood at 7% in data set [1] (HepG2, 2.5 µM) and 67% in data set [1] (HepG2, 10 µM). The matching figures for “AAGGGTATTCTGCTCATAAA (sugars e5 d10 e5, PS)”: 48% and 88%. Take “AAGGTAAACTGAGGCCACCA (sugars e5 d10 e5, PS)”: in data set [1] (HepG2, 0.12 µM), the target mRNA inhibition was found to be 37%.

Consider “AAGTGACAAAGTCTATCAGG (sugars e5 d10 e5, PS)”, for which the target mRNA inhibition in data set [1] (HepG2, 2.5 µM) was 61%; in data set [1] (HepG2, 10 µM) it was 87%. Consider “TCTACAGCTAGCAGGAT (sugars e2 k2 d9 k2 e2, PS)”, for which the target mRNA inhibition in data set [2] (HepG2, 0.1875 µM) amounted to 27%; in data set [2] (HepG2, 0.75 µM), 61%; in data set [2] (HepG2, 3 µM), 85%; in data set [2] (HepG2, 4 µM), 83%; in data set [2] (HepG2, 12 µM), 96%.

For “TCTCACTACAGGTACTT (sugars e2 k2 d9 k2 e2, PS)”, the target mRNA inhibition in data set [2] (HepG2, 5 µM) stood at 46%.

“TCTCCAACATGCCTCTC (sugars e3 k2 d7 k2 e3, PS)” yielded a target mRNA inhibition in data set [2] (HepG2, 3 µM) of 10%. In the case of “TCTCTTCATCCTTTGGC (sugars e3 k2 d7 k2 e3, PS)”, the target mRNA inhibition in data set [2] (HepG2, 3 µM) was 14%. In data set [2] (HepG2, 5 µM), “TCTGACAAGTTTAATAC (sugars e2 k2 d8 k2 e3, PS)” showed a target mRNA inhibition of 33%. With “TCTGACAAGTTTAATAC (sugars e3 k2 d7 k2 e3, PS)”, the target mRNA inhibition in data set [2] (HepG2, 3 µM) amounted to 0%. Same read-out and setting: next, “TCTTCATCCTTTGGCCC (sugars e3 k2 d7 k2 e3, PS)”: 15%.

In the case of “TGAAACAGACATTTTAACTG (sugars e5 d10 e5, PS)”, in data set [2] (HepG2, 5 µM), the target mRNA inhibition came out at 0%. Still for that read-out and setting: next, “TGAATTTGGATTCTTTTAAT (sugars e5 d10 e5, PS)”: 0%; “TGACAAGTTTAATACCC (sugars e2 k2 d8 k2 e3, PS)”: 43%; “TGAGATCACAGAATCTTCAA (sugars e5 d10 e5, PS)”: 30%. For the sequence “TGAGGACCTGCACTGGT (sugars e3 k2 d7 k2 e3, PS)”, in data set [2] (HepG2, 3 µM), the target mRNA inhibition was found to be 8%.

As for “TGCAGGCCTTCAGTCAGTCC (sugars e5 d10 e5, PS)”, the target mRNA inhibition in data set [2] (HepG2, 5 µM) was 42% and 46%. As to “TGCCATACAGGGTTTTT (sugars e2 k2 d9 k2 e2, PS)”, in data set [2] (HepG2, 5 µM), the target mRNA inhibition came to 22%. As for “TGCCATACAGGGTTTTT (sugars e3 k2 d7 k2 e3, PS)”, the target mRNA inhibition in data set [2] (HepG2, 3 µM) worked out at 9%.

As to “TGCCCAAGTCATCTGCT (sugars e3 k2 d7 k2 e3, PS)”, the target mRNA inhibition in data set [2] (HepG2, 3 µM) amounted to 90%. On the same count and under the same terms, next, “TGGAATCCATGCAGGCC (sugars e3 k2 d7 k2 e3, PS)”: 12%. For the sequence “TGGCAAAATACAGGTCA (sugars e2 k2 d8 k2 e3, PS)”, in data set [2] (HepG2, 5 µM), the target mRNA inhibition came out at 33%. The sequence “TGGGCGATCCCAATTAC (sugars e3 k2 d7 k2 e3, PS)” returned a target mRNA inhibition in data set [2] (HepG2, 3 µM) of 20%. The same measure, in the same setting: next, “TGGTCCATTACTTTCCT (sugars e3 k2 d7 k2 e3, PS)”: 5%. “TGTTTATCAGGATACAT (sugars e2 k2 d8 k2 e3, PS)” registered a target mRNA inhibition in data set [2] (HepG2, 4 µM) of 70%. Still for that read-out and setting: next, “TGTTTATTGGGCGATCC (sugars e2 k2 d8 k2 e3, PS)”: 50%.

As for “TTAAAGTGAGGACCTGC (sugars e3 k2 d7 k2 e3, PS)”, in data set [2] (HepG2, 3 µM), the target mRNA inhibition stood at 14%. As to “TTAAGTCTGGCAAAATA (sugars e2 k2 d9 k2 e2, PS)”, the target mRNA inhibition in data set [2] (HepG2, 5 µM) is 42%.

For the sequence “TTAATACCCATCTGTGA (sugars e2 k2 d9 k2 e2, PS)”, in data set [2] (HepG2, 5 µM), the target mRNA inhibition was 26%.

“TTAATACCCATCTGTGA (sugars e3 k2 d7 k2 e3, PS)”: the target mRNA inhibition in data set [2] (HepG2, 3 µM) was 2%.
